Key:
[1] = target: T1, human recombinant dopamine D2L receptor (Homo sapiens, UniProt P14416); experiment: Dopamine D2L radioligand binding ([3H]Spiperone); conditions: percent inhibition of specific binding
T1 construct: expressed in transfected cells; host or cells: CHO cells
Procedure: (§1) Non-specific binding was estimated in the presence of 10 μM Haloperidol. Receptor proteins were filtered and washed, the filters were then counted to determine [^3H]Spiperone specifically bound. […] Biochemical assay results are presented as the percent inhibition of specific binding in Table 6.

[2] = target: T2, human recombinant adrenergic α1D receptor (Homo sapiens, UniProt P25100); experiment: Adrenergic α1D radioligand binding ([3H]Prozosin); set-up: Inhibition of ligand binding, Adren. alpha1D: concentration or dose not given beside the values; conditions: percent inhibition of specific binding
T2 construct: expressed in transfected cells; host or cells: HEK-293 cells
T2 sequence (P25100 1-572): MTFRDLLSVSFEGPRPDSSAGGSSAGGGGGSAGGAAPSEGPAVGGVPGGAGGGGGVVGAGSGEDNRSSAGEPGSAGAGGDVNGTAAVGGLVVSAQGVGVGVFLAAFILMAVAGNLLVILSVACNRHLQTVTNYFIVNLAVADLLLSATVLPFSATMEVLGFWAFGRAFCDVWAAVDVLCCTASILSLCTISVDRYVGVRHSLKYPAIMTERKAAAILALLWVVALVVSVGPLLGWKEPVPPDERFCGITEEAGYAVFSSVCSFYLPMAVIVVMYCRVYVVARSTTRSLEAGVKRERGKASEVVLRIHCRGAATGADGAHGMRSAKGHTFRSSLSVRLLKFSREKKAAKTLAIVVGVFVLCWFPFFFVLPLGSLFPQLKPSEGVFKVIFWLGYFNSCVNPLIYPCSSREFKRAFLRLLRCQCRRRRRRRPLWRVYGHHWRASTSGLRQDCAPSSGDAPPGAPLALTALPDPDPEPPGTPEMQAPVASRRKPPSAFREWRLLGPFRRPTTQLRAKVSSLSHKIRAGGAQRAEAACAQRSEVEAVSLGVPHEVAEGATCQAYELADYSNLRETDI
Procedure: as §1, with “Compounds of invention were incubated with 0.6 nM [^3H]Prozosin for 60 minutes at 25° C. Non-specific” for “Non-specific”, “phentolamine.” for “Haloperidol.”, “[^3H]Prozosin” for “[^3H]Spiperone”

[3] = target: T3, human recombinant adrenergic α2B receptor (Homo sapiens, UniProt P18089); experiment: Adrenergic α2B radioligand binding ([3H]Rauwolscine); set-up: Inhibition of ligand binding, Adren. alpha2B: concentration or dose not given beside the values; conditions: percent inhibition of specific binding
T3 construct: expressed in transfected cells; host or cells: CHO-K1 cells
T3 sequence (P18089 1-450): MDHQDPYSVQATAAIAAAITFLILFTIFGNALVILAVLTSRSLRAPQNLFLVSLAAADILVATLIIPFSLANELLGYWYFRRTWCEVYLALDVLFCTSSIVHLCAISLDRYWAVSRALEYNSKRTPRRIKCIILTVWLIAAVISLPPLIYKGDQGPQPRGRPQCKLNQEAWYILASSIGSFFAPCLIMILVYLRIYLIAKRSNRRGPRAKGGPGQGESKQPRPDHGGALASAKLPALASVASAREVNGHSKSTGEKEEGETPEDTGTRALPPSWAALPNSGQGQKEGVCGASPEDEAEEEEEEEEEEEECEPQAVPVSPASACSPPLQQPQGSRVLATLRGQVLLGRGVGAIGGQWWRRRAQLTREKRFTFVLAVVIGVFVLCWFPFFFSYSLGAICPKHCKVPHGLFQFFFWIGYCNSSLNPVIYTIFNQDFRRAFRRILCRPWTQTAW
In short: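 Membranes from CHO-K1 cells expressing the receptor, in 50 mM Tris-HCl pH 7.4 with 12.5 mM MgCl2, 1 mM EDTA, 0.2% BSA, incubated with compounds and 2.5 nM [3H]Rauwolscine for 60 minutes at 25 °C.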

[4] = target: T4, human recombinant histamine H2 receptor (Homo sapiens, UniProt P25021); experiment: Histamine H2 radioligand binding ([125I]Aminopotentidine); conditions: percent inhibition of specific binding; screened at 1 μM; read-out: Inhibition of ligand binding, Hist. H2
T4 construct: expressed in transfected cells; host or cells: CHO-K1 cells
T4 sequence (P25021 whole entry): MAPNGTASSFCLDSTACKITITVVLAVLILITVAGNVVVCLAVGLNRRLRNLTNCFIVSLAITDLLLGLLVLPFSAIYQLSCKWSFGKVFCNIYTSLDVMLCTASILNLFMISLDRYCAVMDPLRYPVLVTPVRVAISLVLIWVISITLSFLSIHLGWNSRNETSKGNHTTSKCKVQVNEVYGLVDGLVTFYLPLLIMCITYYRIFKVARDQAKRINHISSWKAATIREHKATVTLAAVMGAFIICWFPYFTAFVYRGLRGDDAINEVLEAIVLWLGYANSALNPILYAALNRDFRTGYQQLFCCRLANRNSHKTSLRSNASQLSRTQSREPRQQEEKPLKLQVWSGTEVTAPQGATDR
In short: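 Test compounds were assessed for their ability to displace radioligand from the human recombinant histamine H2 receptor. Non-specific binding was determined in the presence of 3 μM Tiotidine, and results were expressed as percent inhibition of specific binding, with 1% DMSO serving as the vehicle.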

[5] = target: T5, human recombinant serotonin (5-Hydroxytryptamine) 5-HT2A receptor (Homo sapiens, UniProt P28223); experiment: Serotonin 5-HT2A radioligand binding ([3H]Ketanserin); conditions: percent inhibition of specific binding
T5 construct: expressed in transfected cells; host or cells: CHO-K1 cells
T5 sequence (P28223 whole entry): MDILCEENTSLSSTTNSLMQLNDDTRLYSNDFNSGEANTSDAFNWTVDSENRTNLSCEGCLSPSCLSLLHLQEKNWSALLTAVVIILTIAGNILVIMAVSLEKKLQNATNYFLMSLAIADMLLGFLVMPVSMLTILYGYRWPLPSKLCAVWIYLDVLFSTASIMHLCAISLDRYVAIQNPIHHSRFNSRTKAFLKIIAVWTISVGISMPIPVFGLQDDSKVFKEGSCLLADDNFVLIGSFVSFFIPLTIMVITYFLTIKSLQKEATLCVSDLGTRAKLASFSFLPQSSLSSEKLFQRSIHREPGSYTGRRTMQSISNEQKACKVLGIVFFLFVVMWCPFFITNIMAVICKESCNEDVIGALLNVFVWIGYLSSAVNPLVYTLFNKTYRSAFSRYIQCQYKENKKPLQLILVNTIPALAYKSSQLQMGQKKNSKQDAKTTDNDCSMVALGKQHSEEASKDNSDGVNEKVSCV
Procedure: Compounds of the invention were incubated with 0.5 nM [^3H]Ketanserin for 60 minutes at 25° C. Non-specific binding was estimated in the presence of 1 μM Mianserin. Receptor proteins were filtered and washed, the filters were then counted to determine [^3H]Ketanserin specifically bound. […] Biochemical assay results are presented as the percent inhibition of specific binding in Table 6.

[6] = target: T6, human recombinant histamine H1 receptor (Homo sapiens, UniProt P35367); experiment: Histamine H1 radioligand binding ([3H]Pyrilamine); conditions: percent inhibition of specific binding; screened at 1 μM; read-out: Inhibition of ligand binding, Hist. H1
T6 construct: expressed in transfected cells; host or cells: CHO cells
T6 sequence (P35367 whole entry): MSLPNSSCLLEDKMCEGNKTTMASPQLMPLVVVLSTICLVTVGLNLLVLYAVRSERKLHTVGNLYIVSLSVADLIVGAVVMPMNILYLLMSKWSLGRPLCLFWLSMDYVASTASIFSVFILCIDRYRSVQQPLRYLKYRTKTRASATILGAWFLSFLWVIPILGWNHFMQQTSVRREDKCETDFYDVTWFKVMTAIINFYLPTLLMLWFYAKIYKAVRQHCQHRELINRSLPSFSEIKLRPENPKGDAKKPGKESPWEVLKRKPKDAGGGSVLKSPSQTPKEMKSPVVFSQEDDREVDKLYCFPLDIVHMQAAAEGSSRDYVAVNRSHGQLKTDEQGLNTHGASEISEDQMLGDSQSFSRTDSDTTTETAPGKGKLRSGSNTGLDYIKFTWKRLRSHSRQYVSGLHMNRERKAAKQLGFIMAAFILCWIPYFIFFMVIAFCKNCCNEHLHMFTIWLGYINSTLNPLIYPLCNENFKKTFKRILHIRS
In short: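 Receptor expressed in CHO cells, assayed in 50 mM Tris-HCl pH 7.4 with 2 mM MgCl2, 100 mM NaCl, 250 mM sucrose. Compounds tested at 1 μM in 1% DMSO; non-specific binding set with 1 μM pyrilamine. Filter-bound radioactivity counted; values are percent inhibition of specific binding.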

T1 sequence (P14416 whole entry): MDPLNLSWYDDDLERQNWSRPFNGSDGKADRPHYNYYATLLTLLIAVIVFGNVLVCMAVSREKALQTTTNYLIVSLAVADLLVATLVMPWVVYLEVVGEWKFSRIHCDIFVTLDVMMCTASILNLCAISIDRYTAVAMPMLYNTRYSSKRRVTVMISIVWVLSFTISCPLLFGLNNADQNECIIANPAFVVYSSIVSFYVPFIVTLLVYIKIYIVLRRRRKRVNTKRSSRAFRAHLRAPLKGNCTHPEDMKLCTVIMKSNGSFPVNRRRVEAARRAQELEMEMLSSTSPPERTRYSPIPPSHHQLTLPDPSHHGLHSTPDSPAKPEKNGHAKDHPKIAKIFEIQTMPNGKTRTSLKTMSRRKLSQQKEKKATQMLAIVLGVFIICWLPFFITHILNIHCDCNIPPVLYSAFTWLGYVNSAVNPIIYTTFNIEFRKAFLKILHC

SMILES	Inhibition of ligand binding, Dop. D2L [1] [%]	Inhibition of ligand binding, Adren. alpha1D [2] [%]	Inhibition of ligand binding, Adren. alpha2B [3] [%]	inhibition at 1 µM [4] [%]	Inhibition of ligand binding, Ser. 5-HT2A [5] [%]	inhibition at 1 µM [6] [%]
Cc1ncc(CCn2c3c(c4cc(Cl)ccc42)CN(C)CC3)cn1 [Compound 361, 8-Chloro-2-methyl-5-[2-(2-methyl-pyrimidin-5-yl)-ethyl]-2,3,4,5-tetrahydro-1H-pyrido[4,3-b]indole]	31	87	94	25	60	106
CCc1ccc2c(c1)c1c(n2CCc2cnc(C)nc2)CCN(C)C1 [Compound 362, 8-Ethyl-2-methyl-5-[2-(2-methyl-pyrimidin-5-yl)-ethyl]-2,3,4,5-tetrahydro-1H-pyrido[4,3-b]indole]	17	76	82	19	27	98
Cc1cnc(CCn2c3c(c4cc(Cl)ccc42)CN(C)CC3)cn1 [Compound 363, 8-Chloro-2-methyl-5-[2-(5-methyl-pyrazin-2-yl)-ethyl]-2,3,4,5-tetrahydro-1H-pyrido[4,3-b]indole]	24	73	104	31	75	95
CCc1ccc2c(c1)c1c(n2CCc2cnc(C)cn2)CCN(C)C1 [Compound 364, 8-Ethyl-2-methyl-5-[2-(5-methyl-pyrazin-2-yl)-ethyl]-2,3,4,5-tetrahydro-1H-pyrido[4,3-b]indole]	29	77	109	13	59	87
Cc1cnc(CCn2c3c(c4cc(C(C)C)ccc42)CN(C)CC3)cn1 [Compound 369, 8-Isopropyl-2-methyl-5-[2-(5-methyl-pyrazin-2-yl)-ethyl]-2,3,4,5-tetrahydro-1H-pyrido[4,3-b]indole]	1	51	105	6	10	39
Cc1ncc(CCn2c3c(c4cc(C(C)C)ccc42)CN(C)CC3)cn1 [Compound 370, 8-Isopropyl-2-methyl-5-[2-(2-methyl-pyrimidin-5-yl)-ethyl]-2,3,4,5-tetrahydro-1H-pyrido[4,3-b]indole]	10	71	87	18	15	85
CCc1ccc(CCn2c3c(c4cc(Cl)ccc42)CN(C)CC3)cn1 [Compound 371, 8-Chloro-5-[2-(6-ethyl-pyridin-3-yl)-ethyl]-2-methyl-2,3,4,5-tetrahydro-1H-pyrido[4,3-b]indole]	40	88	98	74	93	99
CC(C)c1ccc(CCn2c3c(c4cc(Cl)ccc42)CN(C)CC3)cn1 [Compound 372, 8-Chloro-5-[2-(6-isopropyl-pyridin-3-yl)-ethyl]-2-methyl-2,3,4,5-tetrahydro-1H-pyrido[4,3-b]indole]	44	94	110	82	96	101
Cc1cccc2c3c(n(CCc4ccc(C(F)(F)F)nc4)c12)CCN(C)C3 [Compound 380, 5-(2-(6-(trifluoromethyl)pyridin-3-yl)ethyl)-2,3,4,5-tetrahydro-2,6-dimethyl-1H-pyrido[4,3-b]indole]	−5	73	103	69	88	68
Cc1ccc2c(c1)c1c(n2CCc2cncnc2)CCN(C)C1 [Compound 387, 2,8-Dimethyl-5-(2-pyrimidin-5-yl-ethyl)-2,3,4,5-tetrahydro-1H-pyrido[4,3-b]indole]	1	47	95	11	54	97
Cc1ccc(CCn2c3c(c4cc(C(C)C)ccc42)CN(C)CC3)cn1 [Compound 392, 8-Isopropyl-2-methyl-5-[2-(6-methyl-pyridin-3-yl)-ethyl]-2,3,4,5-tetrahydro-1H-pyrido[4,3-b]indole]	24	88	109	58	53	98
Cc1ccc2c(c1)c1c(n2CC(=O)N2CCCCC2)CCN(C)C1 [Compound 395, 2-(1,2,3,4-tetrahydro-2,8-dimethylpyrido[4,3-b]indol-5-yl)-1-(piperidin-1-yl)ethanone]	2	9	2	4	16	20
Cc1ccc2c(c1)c1c(n2CC(=O)N2Cc3ccccc3C2)CCN(C)C1 [Compound 397, 2-(1,2,3,4-tetrahydro-2,8-dimethylpyrido[4,3-b]indol-5-yl)-1-(isoindolin-2-yl)ethanone]	5	19	40	32	50	77
Cc1ccc2c(c1)c1c(n2CC(=O)N2CCc3ccccc3C2)CCN(C)C1 [Compound 398, 2-(1,2,3,4-tetrahydro-2,8-dimethylpyrido[4,3-b]indol-5-yl)-1-(3,4-dihydroisoquinolin-2(1H)-yl)ethanone]	8	17	50	24	85	76

Reference: patent publication US9096591B2, “Tetracyclic compounds” (Medivation Technologies, Inc., priority 2007, dated 2015)
